According to PubChem BioAssay AID1053139 (Broad Institute, 2014):
Active and inactive are the calls of the source.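 Rule for the calls: active = AC50 for cell killing below 10 µM, with the signal falling as expected; inactive = the rest, including compounds acting in the opposite direction.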

Test system: not listed separately
Assay: viability loss in HepG2 hepatoma cells – cell-based, ATP luminescence, dry powder, set 16, cytotoxicity control, dose response (AID 1053139)
Conditions: HepG2 viability, ATP luminescence (CellTiter-Glo), 72 h; at 26 µM (top of the series)
In the case of `CCCC(=O)Nc1ccc2c(c1)OC[C@H](C)N(Cc1ccccc1)C[C@H](C)[C@@H](OC)CN(C)C2=O`, the activity change, negative = cytotoxicity is reported as 6.6% (inactive).
In the case of `CCCNC(=O)Nc1ccc2c(c1)OC[C@H](C)N(Cc1ccccc1)C[C@H](C)[C@@H](OC)CN(C)C2=O`, the activity change, negative = cytotoxicity is reported as 11.9% (inactive).
For `CCCC(=O)Nc1ccc2c(c1)OC[C@H](C)N(Cc1ccc(-c3ccccn3)cc1)C[C@H](C)[C@@H](OC)CN(C)C2=O`, the activity change, negative = cytotoxicity was 10.3% (inactive).
For `CO[C@H]1CN(C)C(=O)c2ccc(NC(=O)NC(C)C)cc2OC[C@H](C)N(Cc2ccc(-c3ccccn3)cc2)C[C@@H]1C`, the activity change, negative = cytotoxicity was -5.04% (inactive).
In the case of `CCCNC(=O)Nc1ccc2c(c1)OC[C@H](C)N(Cc1ccc(-c3ccccn3)cc1)C[C@H](C)[C@@H](OC)CN(C)C2=O`, the activity change, negative = cytotoxicity is reported as -4.61% (inactive).
For `CO[C@H]1CN(C)C(=O)c2ccc(NC(=O)NC(C)C)cc2OC[C@H](C)N(Cc2ccccc2)C[C@@H]1C`, the activity change, negative = cytotoxicity was 9.75% (inactive).

Same assay, conditions: HepG2 viability, ATP luminescence (CellTiter-Glo), 72 h; at 50 µM (top of the series)
With `CO[C@H]1CN(C)C(=O)c2cc(Nc3ncccn3)ccc2OC[C@H](C)N(Cc2ccc(-c3ccccn3)cc2)C[C@@H]1C` the activity change, negative = cytotoxicity was 15.4% (inactive).
In the case of `CO[C@H]1CN(C)C(=O)c2cc(NC(=O)NC(C)C)ccc2OC[C@H](C)N(C(=O)c2ccccc2)C[C@@H]1C`, the activity change, negative = cytotoxicity is reported as -5.8% (inactive).
For `CO[C@H]1CN(C)C(=O)c2cc(NC(=O)NC(C)C)ccc2OC[C@H](C)N(C(=O)Nc2ccc(-c3ccccn3)cc2)C[C@@H]1C`, the activity change, negative = cytotoxicity was -15% (inactive).
In the case of `CO[C@H]1CN(C)C(=O)c2cc(NC(=O)NC(C)C)ccc2OC[C@H](C)N(Cc2ccccn2)C[C@@H]1C`, the activity change, negative = cytotoxicity is reported as 1.78% (inactive).
For `CO[C@H]1CN(C)C(=O)c2cc(NC(=O)NC(C)C)ccc2OC[C@H](C)N(Cc2ccc(F)cc2)C[C@@H]1C`, the activity change, negative = cytotoxicity was 0.295% (inactive).
For `CO[C@H]1CN(C)C(=O)c2cc(Nc3c(NC4CCCC4)c(=O)c3=O)ccc2OC[C@H](C)N(Cc2ccc(-c3ccccn3)cc2)C[C@@H]1C`, the activity change, negative = cytotoxicity was 6.09% (inactive).
With `CO[C@H]1CN(C)C(=O)c2cc(NC(=O)NC(C)C)ccc2OC[C@H](C)N(Cc2ccncc2)C[C@@H]1C` the activity change, negative = cytotoxicity was -4.57% (inactive).
In the case of `CCC(CC)Nc1c(Nc2ccc3c(c2)C(=O)N(C)C[C@H](OC)[C@@H](C)CN(Cc2ccc(-c4ccccn4)cc2)[C@@H](C)CO3)c(=O)c1=O`, the activity change, negative = cytotoxicity is reported as -1.61% (inactive).
In the case of `CO[C@H]1CN(C)C(=O)c2cc(N)ccc2OC[C@H](C)N(Cc2ccc(-c3ccccn3)cc2)C[C@@H]1C`, the activity change, negative = cytotoxicity is reported as 19.6% (inactive).
With `CO[C@H]1CN(C)C(=O)c2cc(NC(=O)NC(C)C)ccc2OC[C@H](C)N(Cc2cccnc2)C[C@@H]1C` the activity change, negative = cytotoxicity was 6.28% (inactive).
With `CO[C@H]1CN(C)C(=O)c2cc(NC(=O)NC(C)C)ccc2OC[C@H](C)N(C(=O)c2ccc(-c3ccccn3)cc2)C[C@@H]1C` the activity change, negative = cytotoxicity was -10.3% (inactive).
With `CO[C@H]1CN(C)C(=O)c2cc(NC(=O)OC(C)C)ccc2OC[C@H](C)N(Cc2ccc(-c3ccccn3)cc2)C[C@@H]1C` the activity change, negative = cytotoxicity was 12.6% (inactive).
With `CO[C@H]1CN(C)C(=O)c2cc(Nc3c(NC4CCCCC4)c(=O)c3=O)ccc2OC[C@H](C)N(Cc2ccc(-c3ccccn3)cc2)C[C@@H]1C` the activity change, negative = cytotoxicity was -22.3% (inactive).
In the case of `CO[C@H]1CN(C)C(=O)c2cc(Nc3c(NC(C)C)c(=O)c3=O)ccc2OC[C@H](C)N(Cc2ccc(-c3ccccn3)cc2)C[C@@H]1C`, the activity change, negative = cytotoxicity is reported as -15.4% (inactive).
In the case of `CO[C@H]1CN(C)C(=O)c2cc(NC(=O)NC(C)C)ccc2OC[C@H](C)N(Cc2cccc(F)c2)C[C@@H]1C`, the activity change, negative = cytotoxicity is reported as -1.88% (inactive).
In the case of `CO[C@H]1CN(C)C(=O)c2cc(NC(=O)NC(C)C)ccc2OC[C@H](C)N(Cc2ccc(-c3ccncc3)cc2)C[C@@H]1C`, the activity change, negative = cytotoxicity is reported as -12.8% (inactive).
In the case of `CO[C@H]1CN(C)C(=O)c2cc(NC(=O)NC(C)C)ccc2OC[C@H](C)N(Cc2ccc(-c3cccnc3)cc2)C[C@@H]1C`, the activity change, negative = cytotoxicity is reported as 40.3% (inactive).
In the case of `CO[C@H]1CN(C)C(=O)c2cc(NC(=O)NC(C)C)ccc2OC[C@H](C)N(Cc2ccc(-c3ccccn3)cc2)C[C@@H]1C`, the activity change, negative = cytotoxicity is reported as -5.64% (inactive).
In the case of `CO[C@H]1CN(C)C(=O)c2cc(NC(=O)NC(C)C)ccc2OC[C@H](C)NC[C@@H]1C`, the activity change, negative = cytotoxicity is reported as -2.2% (inactive).
In the case of `CO[C@H]1CN(C)C(=O)c2cc(NC(=O)NC(C)C)ccc2OC[C@H](C)N(Cc2ccccc2F)C[C@@H]1C`, the activity change, negative = cytotoxicity is reported as 12.7% (inactive).

Test system: HepG2 viability, ATP luminescence (CellTiter-Glo), 72 h
Assay: as above
Conditions: not given
`CO[C@H]1CN(C)C(=O)c2cc(Nc3c(NC4CC4)c(=O)c3=O)ccc2OC[C@H](C)N(Cc2ccc(-c3ccccn3)cc2)C[C@@H]1C` gave an AC50 of 38.4 µM.
With `CO[C@H]1CN(C)C(=O)c2cc(NC(=O)NC(C)C)ccc2OC[C@H](C)N(Cc2ccc(-c3cncnc3)cc2)C[C@@H]1C` the AC50 was > 100 µM (inactive).
With `CO[C@H]1CN(C)C(=O)c2cc(NC(=O)C(C)C)ccc2OC[C@H](C)N(Cc2ccc(-c3ccccn3)cc2)C[C@@H]1C` the AC50 was > 24 µM (inactive).
In the case of `CO[C@H]1CN(C)C(=O)c2cc(NC(=O)NC(C)C)ccc2OC[C@H](C)N(Cc2cncnc2)C[C@@H]1C`, the AC50 is reported as > 100 µM (inactive).
